Legend:
[1] = target: T1, AmpC (Enterobacter cloacae, UniProt P05364); assay: β-lactamase enzyme inhibition assay, p99 AmpC (nitrocefin substrate); assay type: biochemical
T1 construct: made in house; host or cells: E. coli BL21(DE3)
Method in brief: (§1)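 Native untagged β-lactamases were expressed in E. coli BL21(DE3), then purified by cation exchange and gel filtration. Enzyme was preincubated with inhibitor for 15 min at 37 °C before substrate was added. IC50 was taken from initial hydrolysis rates relative to no-inhibitor controls.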

[2] = system: P. aeruginosa expressing the Class B carbapenemase VIM-2; assay: Broth microdilution MIC assay with meropenem, P. aeruginosa VIM-2; assay type: cell-based; conditions: Fixed Mero (meropenem) 4 μg/mL; P. aerug. 2775 VIM-2
Method in brief: (§2)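 Visual MIC readout of the test compound after 16-20 hours at 37° C, measured in the presence of a constant 4 μg/ml β-lactam. Compound concentrations spanned 16 to 0.125 μg/mL in 2-fold steps in cation-adjusted Mueller Hinton broth.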

[3] = system: E. coli expressing the Class A Extended Spectrum Beta-Lactamase (ESBL) CTX-M-15; assay: Broth microdilution MIC assay with ceftazidime, E. coli CTX-M-15; assay type: cell-based; conditions: Fixed CAZ (ceftazidime) 4 μg/mL; E. coli ESBL4 CTX-M-15
Method in brief: as §2

[4] = system: K. pneumoniae producing the Class D carbapenemase OXA-48; assay: Broth microdilution MIC assay with meropenem, K. pneumoniae OXA-48; assay type: cell-based; conditions: Fixed Mero (meropenem) 4 μg/mL; K. p. 11978 OXA-48
Method in brief: as §2

[5] = system: K. pneumoniae expressing the class A carbapenemase KPC-2 and the class B carbapenemase VIM-4; assay: Broth microdilution MIC assay with meropenem, K. pneumoniae KPC-2 and VIM-4; assay type: cell-based; conditions: Fixed Mero (meropenem) 4 μg/mL; K. p. A-1797 KPC-2 VIM-4
Method in brief: as §2

[6] = target: T2, SHV-5 (Klebsiella pneumoniae, UniProt P0A3M1); assay: β-lactamase enzyme inhibition assay, SHV-5 (cefotaxime substrate); assay type: biochemical
T2 construct: made in house; host or cells: E. coli BL21(DE3)
T2 sequence (P0A3M1 22-286): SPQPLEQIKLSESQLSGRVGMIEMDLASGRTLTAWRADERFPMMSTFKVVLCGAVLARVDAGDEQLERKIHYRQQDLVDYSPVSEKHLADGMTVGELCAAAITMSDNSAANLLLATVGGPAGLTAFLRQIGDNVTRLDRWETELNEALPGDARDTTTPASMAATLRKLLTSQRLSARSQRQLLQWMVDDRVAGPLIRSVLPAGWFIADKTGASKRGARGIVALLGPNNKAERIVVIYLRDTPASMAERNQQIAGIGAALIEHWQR
Method in brief: as §1, with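 “added. Imipenem (A300) served KPC-2 and cefotaxime (A260) served SHV-5.” for “added.”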

[7] = system: E. cloacae expressing the Class C P99; assay: Broth microdilution MIC assay with ceftazidime, E. cloacae P99; assay type: cell-based; conditions: Fixed CAZ (ceftazidime) 4 μg/mL; E. cl. 144200 p99 AmpC
Method in brief: as §2

[8] = target: T3, VIM-2 (Escherichia coli, UniProt Q5U7L7); assay: β-lactamase enzyme inhibition assay, VIM-2 (nitrocefin substrate); assay type: biochemical; conditions: Class B; nitrocefin substrate, 486 nm; read-out: VIM-2
T3 construct: made in house; host or cells: E. coli BL21(DE3)
Method in brief: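 Nitrocefin hydrolysis, read at 486 nm over 10 min, served as the measure of VIM-2 activity. The enzyme had been incubated with compound for 15 min at 37 °C before 100 μM substrate was added, and IC50 values were fitted from percent inhibition of the initial rate.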

[9] = system: K. pneumoniae expressing the Class A carbapenemase KPC-2; assay: Broth microdilution MIC assay with meropenem, K. pneumoniae KPC-2; assay type: cell-based; conditions: Fixed Mero (meropenem) 4 μg/mL; K. p. 156319 KPC-3
Method in brief: as §2

[10] = target: OXA-48 (UniProt Q6XEC0); assay: β-lactamase enzyme inhibition assay, Class D oxacillinase; assay type: biochemical; conditions: read-out: OXA-48
[11] = target: T4, KPC-2 (Klebsiella pneumoniae, UniProt Q9F663); assay: β-lactamase enzyme inhibition assay, KPC-2 (imipenem substrate); assay type: biochemical; conditions: Class A; imipenem substrate, 300 nm; read-out: KPC-2
T4 construct: made in house; host or cells: E. coli BL21(DE3)
T4 sequence (Q9F663 25-293, looked up): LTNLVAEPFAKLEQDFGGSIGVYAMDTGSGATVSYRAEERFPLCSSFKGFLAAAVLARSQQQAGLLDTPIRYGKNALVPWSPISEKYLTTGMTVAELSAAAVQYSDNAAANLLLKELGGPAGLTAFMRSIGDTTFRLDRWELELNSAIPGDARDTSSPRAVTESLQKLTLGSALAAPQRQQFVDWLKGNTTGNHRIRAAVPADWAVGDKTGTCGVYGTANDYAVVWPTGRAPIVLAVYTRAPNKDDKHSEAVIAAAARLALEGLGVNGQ
Method in brief: as §1, with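 “added. Imipenem (A300) served KPC-2 and cefotaxime (A260) served SHV-5.” for “added.”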

T1 sequence (P05364 21-381): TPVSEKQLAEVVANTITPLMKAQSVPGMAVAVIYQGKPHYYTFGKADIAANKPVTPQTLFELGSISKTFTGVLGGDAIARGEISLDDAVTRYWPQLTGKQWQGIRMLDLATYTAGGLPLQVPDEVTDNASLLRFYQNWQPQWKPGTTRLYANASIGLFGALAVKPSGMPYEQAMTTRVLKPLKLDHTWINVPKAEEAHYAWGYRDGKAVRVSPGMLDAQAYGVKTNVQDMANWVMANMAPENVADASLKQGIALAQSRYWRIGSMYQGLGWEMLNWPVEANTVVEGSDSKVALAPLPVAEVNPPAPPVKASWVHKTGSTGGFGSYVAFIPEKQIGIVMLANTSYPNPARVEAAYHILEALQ

Compound	IC50 [1] [nM]	MIC (μg/mL) of Exemplary Compounds in presence of fixed β-lactams: P. aerug. 2775 VIM-2 [2]	MIC (μg/mL) of Exemplary Compounds in presence of fixed β-lactams: E. coli ESBL4 CTX-M-15 [3]	MIC (μg/mL) of Exemplary Compounds in presence of fixed β-lactams: K. p. 11978 OXA-48 [4]	MIC (μg/mL) of Exemplary Compounds in presence of fixed β-lactams: K. p. A-1797 KPC-2 VIM-4 [5]	IC50 [6] [nM]	MIC (μg/mL) of Exemplary Compounds in presence of fixed β-lactams: E. cl. 144200 p99 AmpC [7]	IC50 [8] [nM]	MIC (μg/mL) of Exemplary Compounds in presence of fixed β-lactams: K. p. 156319 KPC-3 [9]	IC50 [10] [nM]	IC50 [11] [nM]
Nc1ccc(-c2cn(CC(=O)N[C@H]3Cc4cccc(C(=O)O)c4OB3O)nn2)cn1 [Example 74, (R)-3-(2-(4-(6-aminopyridin-3-yl)-1H-1,2,3-triazol-1-yl)acetamido)-2-hydroxy-3,4-dihydro-2H-benzo[e][1,2]oxaborinine-8-carboxylic acid]	< 100	B (B represents an MIC between 1 and 16 μg/mL inclusive)	C (C represents an MIC of <1 μg/mL)	B (B represents an MIC between 1 and 16 μg/mL inclusive)	A (A represents an MIC>16 μg/mL)	< 100	C (C represents an MIC of <1 μg/mL)	1000 to 10000	B (B represents an MIC between 1 and 16 μg/mL inclusive)	100 to 1000	< 100
NCc1ccc(-c2cn(CC(=O)N[C@H]3Cc4cccc(C(=O)O)c4OB3O)nn2)cn1 [Example 75, (R)-3-(2-(4-(6-(aminomethyl)pyridin-3-yl)-1H-1,2,3-triazol-1-yl)acetamido)-2-hydroxy-3,4-dihydro-2H-benzo[e][1,2]oxaborinine-8-carboxylic acid]	< 100	B (B represents an MIC between 1 and 16 μg/mL inclusive)	C (C represents an MIC of <1 μg/mL)	B (B represents an MIC between 1 and 16 μg/mL inclusive)	B (B represents an MIC between 1 and 16 μg/mL inclusive)	< 100	C (C represents an MIC of <1 μg/mL)	100 to 1000	C (C represents an MIC of <1 μg/mL)	100 to 1000	100 to 1000
NCC(=O)NCc1cn(CC(=O)N[C@H]2Cc3cccc(C(=O)O)c3OB2O)nn1 [Example 76, (R)-3-(2-(4-((2-aminoacetamido)methyl)-1H-1,2,3-triazol-1-yl)acetamido)-2-hydroxy-3,4-dihydro-2H-benzo[e][1,2]oxaborinine-8-carboxylic acid]	< 100	C (C represents an MIC of <1 μg/mL)	C (C represents an MIC of <1 μg/mL)	B (B represents an MIC between 1 and 16 μg/mL inclusive)	B (B represents an MIC between 1 and 16 μg/mL inclusive)	< 100	C (C represents an MIC of <1 μg/mL)	< 100	C (C represents an MIC of <1 μg/mL)	100 to 1000	100 to 1000
NOCC(=O)NCc1cn(CC(=O)N[C@H]2Cc3cccc(C(=O)O)c3OB2O)nn1 [Example 77, (R)-3-(2-(4-((2-(aminooxy)acetamido)methyl)-1H-1,2,3-triazol-1-yl)acetamido)-2-hydroxy-3,4-dihydro-2H-benzo[e][1,2]oxaborinine-8-carboxylic acid]	< 100	C (C represents an MIC of <1 μg/mL)	C (C represents an MIC of <1 μg/mL)	B (B represents an MIC between 1 and 16 μg/mL inclusive)	B (B represents an MIC between 1 and 16 μg/mL inclusive)	< 100	C (C represents an MIC of <1 μg/mL)	100 to 1000	C (C represents an MIC of <1 μg/mL)	100 to 1000	< 100
O=C(Cc1cn2ccsc2n1)N[C@H]1Cc2cccc(C(=O)O)c2OB1O [Example 78, (R)-2-hydroxy-3-(2-(imidazo[2,1-b]thiazol-6-yl)acetamido)-3,4-dihydro-2H-benzo[e][1,2]oxaborinine-8-carboxylic acid]	< 100	B (B represents an MIC between 1 and 16 μg/mL inclusive)	C (C represents an MIC of <1 μg/mL)	B (B represents an MIC between 1 and 16 μg/mL inclusive)	A (A represents an MIC>16 μg/mL)	< 100	C (C represents an MIC of <1 μg/mL)	100 to 1000	B (B represents an MIC between 1 and 16 μg/mL inclusive)	< 100	< 100
CNC(=O)c1cn(CC(=O)N[C@H]2Cc3cccc(C(=O)O)c3OB2O)nn1 [Example 79, (R)-2-hydroxy-3-(2-(4-(methylcarbamoyl)-1H-1,2,3-triazol-1-yl)acetamido)-3,4-dihydro-2H-benzo[e][1,2]oxaborinine-8-carboxylic acid]	< 100	C (C represents an MIC of <1 μg/mL)	C (C represents an MIC of <1 μg/mL)	C (C represents an MIC of <1 μg/mL)	B (B represents an MIC between 1 and 16 μg/mL inclusive)	< 100	C (C represents an MIC of <1 μg/mL)	100 to 1000	C (C represents an MIC of <1 μg/mL)	100 to 1000	< 100
NC1CN(C(=O)c2cn(CC(=O)N[C@H]3Cc4cccc(C(=O)O)c4OB3O)nn2)C1 [Example 80, (R)-3-(2-(4-(3-aminoazetidine-1-carbonyl)-1H-1,2,3-triazol-1-yl)acetamido)-2-hydroxy-3,4-dihydro-2H-benzo[e][1,2]oxaborinine-8-carboxylic acid]	< 100	C (C represents an MIC of <1 μg/mL)	C (C represents an MIC of <1 μg/mL)	B (B represents an MIC between 1 and 16 μg/mL inclusive)	B (B represents an MIC between 1 and 16 μg/mL inclusive)	< 100	C (C represents an MIC of <1 μg/mL)	100 to 1000	B (B represents an MIC between 1 and 16 μg/mL inclusive)	100 to 1000	< 100
O=C(Cn1cc(C(=O)N[C@H]2CCNC2)nn1)N[C@H]1Cc2cccc(C(=O)O)c2OB1O [Example 81, (R)-2-hydroxy-3-(2-(4-(((S)-pyrrolidin-3-yl)carbamoyl)-1H-1,2,3-triazol-1-yl)acetamido)-3,4-dihydro-2H-benzo[e][1,2]oxaborinine-8-carboxylic acid]	< 100	C (C represents an MIC of <1 μg/mL)	C (C represents an MIC of <1 μg/mL)	C (C represents an MIC of <1 μg/mL)	C (C represents an MIC of <1 μg/mL)	< 100	C (C represents an MIC of <1 μg/mL)	< 100	C (C represents an MIC of <1 μg/mL)	100 to 1000	< 100

From patent publication US11046716B2, “Beta-lactamase inhibitors” (priority 2015, dated 2021)
